“Also recorded” adds a separate entry of the source.

Assay [1] has as its system EdU incorporation in A3 cells. The experiment in a line: EdU flow cytometry analysis. The assay is classed as cell-based, human. The conditions noted are these: 10 μM. On the procedure:
At the indicated time points, compound/dox treated cells were incubated in medium containing 10 μM 5-ethynyl-2′-deoxyuridine (EdU) (Thermo Fisher, A10044) for 20 min. Next, cells were fixed in cold 70% ethanol overnight. The azide alkyne Huisgen cycloaddition (‘Click reaction’) was carried out according to the Click-iT EdU Imaging Manual (Thermo Fisher) using various fluorescent dyes: Alexa Fluor® 488 azide (Thermo Fisher, A10266), Alexa Fluor® 647 azide (Thermo Fisher, A10277), or TAMRA azide (Thermo Fisher, T10182), depending on assay conditions. Samples were incubated with Alexa Fluor® 488 Mouse anti-H2AX (pS139) (BD Biosciences, 560445) overnight at 4°C and finally stained with DAPI solution [10 μg/ml DAPI (Sigma, D9542), 0.1 mg/ml RNase A (Thermo Fisher, EN0531), 1% BSA in PBS] for 20 min at room temperature. Measurements were done using a Navios Flow Cytometer (Beckman Coulter). Data was analyzed using Kaluza® Flow Analysis Software (Beckman Coulter).
Supplementary Fig. S7: EdU incorporation in OGG1 perturbed A3 cells. A. Cells harboring the indicated shRNA constructs were treated with doxycycline for 48, 96 and 144 h and pulsed with EdU for 20 minutes before fixation, followed by Alexa-488 conjugation by click chemistry and quantitation by flow cytometry. […] Statistical significance was determined using unpaired, two-sided T-tests (*, […]
(In general: Flow cytometry measures light scatter and fluorescence of single cells or particles in a stream.)

The subject of the next assay is A3 xenograft tumors. The experiment in a line: Mouse xenograft experiment. Format: in vivo. The conditions noted are these: A3 subcutaneous tumors in NOD-SCID mice, oral 20 mg/kg, increased to 40 mg/kg. Here is the method: Animal experiments were conducted as per the European directive, ethical guideline and regulations of the regional animal ethical committee Stockholm 2010/63 (N8914). Upon arrival to animal facility, animals were acclimatized in the animal house for a week with ad lib food and water, with a 12 h light cycle and the temperature and humidity set according to laboratory animal guidelines and regulations. For the xenograft experiment involving inducible shRNA, 1 × 10^7 non-targeting luciferase transfected A3 cells in 50% matrigel in PBS were injected into flank region of BALB/c nude mice. Later, mice from non-targeting and shRNA groups were randomly divided into two groups containing eight mice per group. […] Tumor volume was measured using calipers (length × 0.52 × width × width) and bioluminescence images were taken using an IVIS spectrum in vivo imaging system (Perkin-Elmer) after intraperitoneal injection of D-luciferin (150 mg/kg in PBS). […] Following lysis by three freeze-thaw cycles, samples were centrifuged at 20 000 × g for 30 min, and OGG1 in the supernatant was detected by immunoblotting. […]
Figure 7. […] Tumors were excised following termination, and TH5487 target engagement was analyzed by cellular thermal shift assay, using an antibody specific for the human OGG1 protein. […]

For `O=C(Nc1ccc(I)cc1)N1CCC(n2c(=O)[nH]c3c(Br)cccc32)CC1` [TH5487], in assay [1], the “DNA synthesis (EdU incorporation)” value was “only detectable after 96 h treatment; also recorded: DNA synthesis was reduced”. Moreover, the Xenograft growth inhibition result with A3 xenograft tumors is recorded as “not able to detect xenograft growth inhibition”.

These data come from article PMC7708037, “Targeting OGG1 arrests cancer cell proliferation by inducing replication stress” (Nucleic Acids Research, 2020).
